{"source": "paper PMC8748493", "about": "“Helical structure motifs made searchable for functional peptide design” (Nature Communications, 2022)", "key": {"[1]": {"test_system": "Escherichia coli ATCC 25922", "settings": "ATCC 25922, 18 h; for E. coli ATCC 25922 killed in the MIC90 experiments: 30", "experimental": "(§1) Contrasting to the simulation results of W3_p1 and W3_p2, W3_db5 has only one Trp (W3) inserted into the bacterial membrane by the end of 1 μs simulation (Supplementary Movie 1 and Supplementary Fig. 3). […] Experiments are performed in pentaplicate and MIC90 is determined as the majority results of the 5 replicates (see “Methods”). It is worth mentioning that we could reproduce the reported MIC90 values for three published AMPs when using the same culture protocol to culture E. coli ATCC 25922. […] The latter result is consistent with the MD-based natural insertion results (Supplementary Fig. 3).\n(§2) To measure the antimicrobial activity of peptides, MICs were determined by the broth-dilution assay as described in Clinical and Laboratory Standards Institute (CLSI) documents M27-A3 for yeasts[63] and M07-A9 for bacteria[64] with minor modifications. Briefly, E. coli ATCC 25922 and C. albicans SC5314 were recovered from frozen stock by growing overnight at 37 °C on LB (Luria-Bertani) and YPD (Yeast Extract-Peptone-Dextrose) agar plates, separately. A single colony of E. coli was inoculated into 5 ml LB medium and grown overnight at 37 °C with shaking at 220 rpm. Cells were then diluted into MHB (Mueller–Hinton broth) at 1:100, and grew until the optical density at 600 nm (OD600) reached 0.4 to 0.8. For C. albicans SC5314, a single colony was inoculated in YPD broth and grown overnight at 30 °C with shaking at 180 rpm. Cells from the overnight culture were subcultured into fresh YPD and grew to mid-log phase. Finally, E. coli and C. albicans cells obtained from the above-described were diluted into MHB and LYM, a modified RPMI 1640 medium[65] to a concentration of ~5 × 10^5 cells/ml and ~4 × 10^4 cells/ml, respectively. To determine the MIC values, one hundred microliters of cells was placed in each well of a clear bottom 96-well microplate, followed by independently adding 100 μl peptides with different concentrations (in MHB or LYM). The final concentrations in the wells were 120, 60, 30, 15, 7.5, 3.75, and 1.88 μg/ml for peptides, ~2.5 × 10^5 cells/ml for E. coli and ~2 × 10^4 cells/ml for C. albicans. The plate was incubated at 37 °C with shaking at 220 rpm for 18 h (E. coli) and at 180 rpm for 24 h (C. albicans). The OD600 values were measured using a iMark^TM Microplate Absorbance Reader (Bio-Rad). The MIC90 value was determined by 90% reduction in growth compared with that of the peptide-free growth control. Experiments were performed in pentaplicate, and MIC90 was determined as the majority value out of 5 repeats."}, "[2]": {"test_system": "Escherichia coli ATCC 25922", "settings": "E. coli ATCC 25922; cited from earlier work", "experimental": "Contrasting to the simulation results of W3_p1 and W3_p2, W3_db5 has only one Trp (W3) inserted into the bacterial membrane by the end of 1 μs simulation (Supplementary Movie 1 and Supplementary Fig. 3). To further examine the bactericidal and anti-fungal activities of these AMPs, we measure the minimal inhibitory concentration (MIC90) at which the growth of 90% of the pathogenic fungus Candida albicans SC5314 and Escherichia coli ATCC 25922 can be inhibited. Experiments are performed in pentaplicate and MIC90 is determined as the majority results of the 5 replicates (see “Methods”). It is wor ..."}, "Candida albicans SC5314": {"test_system": "Candida albicans SC5314", "settings": "SC5314, 24 h", "experimental": "as §1, §2"}, "human RBCs": {"test_system": "human RBCs", "assay_type": "cell-based", "experimental": "The hemolytic toxicity was determined by the hemolysis against human RBCs as in previous publication. First, RBCs from healthy donors were mixed with EDTA in the collecting tubes to inhibit the coagulation. Then the RBCs were washed for three repeats as follows—centrifugation at RCF 800 × g for 10 min, removal of the supernatant, and resuspension with PBS buffer. Such washed RBCs stock was finally diluted with a PBS buffer to be the 10% (v/v) RBCs solution for assays. Then total eight samples of various final concentrations (240, 120, 60, 30, 15, 7.5, 3.75, and 1.88 μg/ml) for each AMP in 96-well microplate were prepared by mixing 10% RBCs and diluted AMP solutions, respectively, at ratio 1:1 (v/v) into final volume 200 μl. All samples were placed under the condition of 37 °C for 1 h and then centrifuged at RCF 800 g for 10 min. Finally, all these supernatants from samples and controls were picked out for the measurement of optical density at the 450 nm wavelength. The data processing was performed to calculate the hemolytic percentage defined as [Asample − Acontrol−]/[Acontrol+ − Acontrol−], where Acontrol+ and Acontrol− are the measurement at wavelength 450 nm for the positive and negative controls, that are 100 μl 10% RBCs suspended in 100 μl PBS buffer with and without 2% (v/v) Triton X-100 (a known detergent to lyse the RBCs), respectively. The final hemolytic percentage for AMPs at various concentrations was determined by the mean values of three repeated experiments, and MHC5 value, defined as the minimal concentration of AMPs leading to at least 5% hemolysis of RBCs, can be determined."}, "[3]": {"test": "Circular dichroism, helicity percentage by DichroWeb", "assay_type": "physicochemical", "settings": "CD spectra 190 to 260 nm", "source_text": "We found W3_db5 adopts a higher helicity than W3_n2 that is found to be more helical than W3_n1 (Fig. 5), where W3_n1 has a helicity closest to Tat, a popular cell-penetrating peptide known to take a random coil structure. This low helicity is consistent with the fact that the “WGN WGG W” stretch in W3_n1 takes mostly coil and sheet structures in its original PDB file (PDB ID: 4F54). The online software DichroWeb[44] provides a helicity percentage prediction for Tat, W3_n1, W3_n2, W3_db5, W3_p1, W3_p2, and CM15 based on their spectra data over the wavelength 190 to 260 nm wavelength −6.5, 2.0, 18.3, 60.2, 57.8, 51.2, and 54%, respectively.\nFig. 5 The CD spectra from 190 to 260 nm for all the examined peptides in the study where CM15[1],[50] is a known helical AMP and Tat, a cell-penetrating peptide (YGRKKRRQRRR) extracted from the transactivating transcriptional activator, is in a random coil structure. All the experimental data are provided as a Source data file."}, "[4]": {"settings": "cited from earlier work", "source_text": "It should be carefully noted that helicity percentage is also concentration-dependent. NMR-resolved structures are usually determined at a concentration of several mM, while CD spectra measure at a few tens of μM. It has been reported by several studies that the same helical peptide resolved by NMR (at high concentration) has a higher helicity percentage than that of the same measured by CD (at a lower concentration). For instance, an intragenic AMP (PDB ID: 6VLA) has a helicity percentage of 94% according to its NMR-resolved structure but 59% by CD[48]. Similarly, an AMP from Whiteleg shrimp ..."}}, "note": "Where no end group is shown, it is not given here."}
{"substance": "FKRIVQRIKDFLR-NH2 (C-terminus assumed) [FK13]", "values": [{"measurement": "MIC90 vs. E. coli", "setting": "[1]", "result": 25, "unit": "µg/mL"}, {"measurement": "reported MIC", "setting": "[2]", "result": 27.5, "unit": "µg/mL"}]}
{"substance": "GLLKKIKWLL-NH2 (C-terminus assumed) [Anoplin-R5KT8W]", "values": [{"measurement": "reported MIC", "setting": "[2]", "result": 15.1, "unit": "µg/mL"}]}
{"substance": "KKWGNWGGWRLKK [W3_n1]", "values": [{"measurement": "MIC90 vs. E. coli", "setting": "[1]", "result": ">>120 μg/ml"}, {"measurement": "E. coli ATCC 25922 killed in the MIC90 experiments", "setting": "[1]", "result": 2.5, "unit": "%"}]}
{"substance": "KKWKCWARWRLKK [W3_db5]", "values": [{"measurement": "MIC90 vs. C. albicans", "setting": "Candida albicans SC5314", "result": 3.75, "unit": "µg/mL"}, {"measurement": "MIC90 vs. E. coli", "setting": "[1]", "result": 30, "unit": "µg/mL"}, {"measurement": "hemolysis reduction of human RBCs as compared to templates W3-p1 and W3-p2", "setting": "human RBCs", "result": "20–40 folds"}]}
{"substance": "KKWKDWESWRLKK [W3_n2]", "values": [{"measurement": "MIC90 vs. E. coli", "setting": "[1]", "result": ">>120 μg/ml"}, {"measurement": "E. coli ATCC 25922 killed in the MIC90 experiments", "setting": "[1]", "result": 9.5, "unit": "%"}]}
{"substance": "KKWLKWLKWLKKK [W3_p2]", "values": [{"measurement": "MIC90 vs. C. albicans", "setting": "Candida albicans SC5314", "result": 7.5, "unit": "µg/mL"}, {"measurement": "MIC90 vs. E. coli", "setting": "[1]", "result": 15, "unit": "µg/mL"}, {"measurement": "MHC5", "setting": "human RBCs", "result": 90, "unit": "µg/mL"}]}
{"substance": "KKWRKWLKWLAKK [W3_p1]", "values": [{"measurement": "MIC90 vs. C. albicans", "setting": "Candida albicans SC5314", "result": 7.5, "unit": "µg/mL"}, {"measurement": "MIC90 vs. E. coli", "setting": "[1]", "result": 15, "unit": "µg/mL"}, {"measurement": "MHC5", "setting": "human RBCs", "result": 120, "unit": "µg/mL"}]}
{"substance": "KWKLFKKIGAVLKVL-NH2 (C-terminus assumed) [CM15]", "values": [{"measurement": "helicity percentage (DichroWeb, from CD spectra)", "setting": "[3]", "result": 54, "unit": "%"}, {"measurement": "reported MIC", "setting": "[2]", "result": 4.0, "unit": "µg/mL"}, {"measurement": "helicity by NMR", "setting": "[4]", "result": 80, "unit": "%"}, {"measurement": "helicity percentage by CD", "setting": "[4]", "result": 65, "unit": "%"}]}
